The NIST ThermoML archive (doi:10.1021/je101151f)
Numbers after ± are expanded uncertainties.

settings: Liquid; Manometric method

Q: For `Cc1ccc(C(C)C)cc1` [1-(1-methylethyl)-4-methylbenzene], which Normal boiling temperature is on record?
A: Its Normal boiling temperature is 176.24 ± 0.31 °C.

Q: For `C=C(C)[C@@H]1CC=C(C)CC1` [(S)-1-methyl-4-(1-methylethenyl)cyclohexene], which Normal boiling temperature is on record?
A: Its Normal boiling temperature is 177.19 ± 0.36 °C.

Q: With `C=C1CCC2CC1C2(C)C` (stereo not drawn) [β-pinene] as the compound, how does the Normal boiling temperature read?
A: The Normal boiling temperature was 165.80 ± 0.31 °C.
